Test results taken from patent US20170065564A1, “BIS-CYCLIC GUANIDINE COMPOUND COMPOSITIONS, METHODS OF USE AND TREATMENT THEREOF” (University of South Florida, priority 2014, published 2017).
One block for each compound: values may come before it.

What was measured:
Assay in all cases: MIC micro broth dilution assay
Format in all cases: cell-based
Staphylococcus aureus = tested on: Staphylococcus aureus; design: key to stacked score activity, 100/MIC, S: stacked score = 100/MIC; details: S. aureus
Procedure: (§1) For this study we used a representative panel of multi-drug resistant clinical ESKAPE pathogen isolates (Supplemental Table S6).^42 43 3a, 44 45 Gram-positive organisms were grown in tryptic soy broth media (TSB), whilst Gram-negative organisms were grown in lysogeny Broth (LB), as described by us previously. ^43 MIC and MBC determination assays.
(§2) Broth cultures of ESKAPE strains were grown overnight before being diluted 1 in 1,000 in fresh media. Sterile 96-well plates were loaded with culture and compounds (in DMF) were added at decreasing concentrations to equal a total volume of 200 μl per well. Care was taken to not add more than 2.0% DMF to any well. Plates were then incubated at 37° C., and MICs determined after 24 hours by visual inspection for a lack of turbidity in wells. All assays were performed in triplicate with identical results obtained. For both the scaffold ranking and positional scanning samples, relative broad-spectrum activity was determined via stacked scores: […]

Acinetobacter baumannii = tested on: Acinetobacter baumannii; design: key to stacked score activity, 100/MIC, A: stacked score = 100/MIC; details: A. baumannii
Procedure: as §1, §2

Klebsiella pneumoniae = tested on: Klebsiella pneumoniae; design: key to stacked score activity, 100/MIC, K: stacked score = 100/MIC; details: K. pneumoniae
Procedure: as §1, §2

Enterococcus faecium = tested on: Enterococcus faecium; design: key to stacked score activity, 100/MIC, E: stacked score = 100/MIC; details: E. faecium
Procedure: as §1, §2

Enterobacter cloacae = tested on: Enterobacter cloacae; design: key to stacked score activity, 100/MIC, E: stacked score = 100/MIC; details: E. cloacae
Procedure: as §1, §2

SMILES: CCC(C)CN1C(=N)N(CCCC[C@H]2CNC(=N)N2CC2CCCCC2)C[C@@H]1C(C)CC (some centres unmarked) [Compound 42]
stacked score activity, 100/MIC, S (Staphylococcus aureus): 4
stacked score activity, 100/MIC, A (Acinetobacter baumannii): 0
stacked score activity, 100/MIC, K (Klebsiella pneumoniae): 0
stacked score activity, 100/MIC, E (Enterococcus faecium): 0
stacked score activity, 100/MIC, E (Enterobacter cloacae): 0

SMILES: CCC[C@@H]1CN(CCCC[C@H]2CNC(=N)N2CC2CCCCC2)C(=N)N1CCc1cccc(C)c1 [Compound 44]
stacked score activity, 100/MIC, S (Staphylococcus aureus): 4
stacked score activity, 100/MIC, A (Acinetobacter baumannii): 0
stacked score activity, 100/MIC, K (Klebsiella pneumoniae): 0
stacked score activity, 100/MIC, E (Enterococcus faecium): 0
stacked score activity, 100/MIC, E (Enterobacter cloacae): 0

SMILES: CCCCCCCN1C(=N)NC[C@@H]1CCCCN1CCN(CC(C)CC)C1=N (some centres unmarked) [Compound 30]
stacked score activity, 100/MIC, S (Staphylococcus aureus): 0
stacked score activity, 100/MIC, A (Acinetobacter baumannii): 0
stacked score activity, 100/MIC, K (Klebsiella pneumoniae): 0
stacked score activity, 100/MIC, E (Enterococcus faecium): 0
stacked score activity, 100/MIC, E (Enterobacter cloacae): 0

SMILES: CCCCCCCN1C(=N)NC[C@@H]1CCCCN1CCN(CCc2cccc(C)c2)C1=N [Compound 29]
stacked score activity, 100/MIC, S (Staphylococcus aureus): 4
stacked score activity, 100/MIC, A (Acinetobacter baumannii): 0
stacked score activity, 100/MIC, K (Klebsiella pneumoniae): 0
stacked score activity, 100/MIC, E (Enterococcus faecium): 0
stacked score activity, 100/MIC, E (Enterobacter cloacae): 0

SMILES: CCCCCCCN1C(=N)NC[C@@H]1CCCCN1CCNC1=N [Compound 28]
stacked score activity, 100/MIC, S (Staphylococcus aureus): 0
stacked score activity, 100/MIC, A (Acinetobacter baumannii): 0
stacked score activity, 100/MIC, K (Klebsiella pneumoniae): 0
stacked score activity, 100/MIC, E (Enterococcus faecium): 0
stacked score activity, 100/MIC, E (Enterobacter cloacae): 0

SMILES: CCCCCCCN1C(=N)NC[C@@H]1CCCCN1C[C@@H](CCC)N(CC(C)CC)C1=N (some centres unmarked) [Compound 36]
stacked score activity, 100/MIC, S (Staphylococcus aureus): 4
stacked score activity, 100/MIC, A (Acinetobacter baumannii): 0
stacked score activity, 100/MIC, K (Klebsiella pneumoniae): 0
stacked score activity, 100/MIC, E (Enterococcus faecium): 0
stacked score activity, 100/MIC, E (Enterobacter cloacae): 0

SMILES: CCCCCCCN1C(=N)NC[C@@H]1CCCCN1C[C@H](C(C)CC)N(CC(C)CC)C1=N (some centres unmarked) [Compound 33]
stacked score activity, 100/MIC, S (Staphylococcus aureus): 4
stacked score activity, 100/MIC, A (Acinetobacter baumannii): 0
stacked score activity, 100/MIC, K (Klebsiella pneumoniae): 0
stacked score activity, 100/MIC, E (Enterococcus faecium): 0
stacked score activity, 100/MIC, E (Enterobacter cloacae): 0

SMILES: CCC(C)CN1CCN(CCCC[C@H]2CNC(=N)N2CC2CCCCC2)C1=N (some centres unmarked) [Compound 39]
stacked score activity, 100/MIC, S (Staphylococcus aureus): 0
stacked score activity, 100/MIC, A (Acinetobacter baumannii): 0
stacked score activity, 100/MIC, K (Klebsiella pneumoniae): 0
stacked score activity, 100/MIC, E (Enterococcus faecium): 0
stacked score activity, 100/MIC, E (Enterobacter cloacae): 0

SMILES: CCCCCCCN1C(=N)NC[C@@H]1CCCCN1C[C@H](C(C)CC)NC1=N (some centres unmarked) [Compound 31]
stacked score activity, 100/MIC, S (Staphylococcus aureus): 4
stacked score activity, 100/MIC, A (Acinetobacter baumannii): 0
stacked score activity, 100/MIC, K (Klebsiella pneumoniae): 0
stacked score activity, 100/MIC, E (Enterococcus faecium): 0
stacked score activity, 100/MIC, E (Enterobacter cloacae): 0

SMILES: Cc1cccc(CCN2CCN(CCCC[C@H]3CNC(=N)N3CC3CCCCC3)C2=N)c1 [Compound 38]
stacked score activity, 100/MIC, S (Staphylococcus aureus): 4
stacked score activity, 100/MIC, A (Acinetobacter baumannii): 0
stacked score activity, 100/MIC, K (Klebsiella pneumoniae): 0
stacked score activity, 100/MIC, E (Enterococcus faecium): 0
stacked score activity, 100/MIC, E (Enterobacter cloacae): 0

SMILES: CCC(C)[C@H]1CN(CCCC[C@H]2CNC(=N)N2CC2CCCCC2)C(=N)N1CCc1cccc(C)c1 (some centres unmarked) [Compound 41]
stacked score activity, 100/MIC, S (Staphylococcus aureus): 4
stacked score activity, 100/MIC, A (Acinetobacter baumannii): 0
stacked score activity, 100/MIC, K (Klebsiella pneumoniae): 0
stacked score activity, 100/MIC, E (Enterococcus faecium): 0
stacked score activity, 100/MIC, E (Enterobacter cloacae): 0

SMILES: N=C1NC[C@H](CCCCN2C[C@@H](Cc3cccc4ccccc34)N(CCc3ccc(-c4ccccc4)cc3)C2=N)N1CCC12CC3CC(CC(C3)C1)C2 [Compound 24]
stacked score activity, 100/MIC, S (Staphylococcus aureus): 10
stacked score activity, 100/MIC, A (Acinetobacter baumannii): 0
stacked score activity, 100/MIC, K (Klebsiella pneumoniae): 0
stacked score activity, 100/MIC, E (Enterococcus faecium): 4
stacked score activity, 100/MIC, E (Enterobacter cloacae): 0

The next lines start with the values.

stacked score activity, 100/MIC, S (Staphylococcus aureus): 4
stacked score activity, 100/MIC, A (Acinetobacter baumannii): 0
stacked score activity, 100/MIC, K (Klebsiella pneumoniae): 0
stacked score activity, 100/MIC, E (Enterococcus faecium): 0
stacked score activity, 100/MIC, E (Enterobacter cloacae): 0
SMILES: CCC[C@@H]1CN(CCCC[C@H]2CNC(=N)N2CC2CCC(C)CC2)C(=N)N1 (some centres unmarked) [Compound 52]

stacked score activity, 100/MIC, S (Staphylococcus aureus): 0
stacked score activity, 100/MIC, A (Acinetobacter baumannii): 0
stacked score activity, 100/MIC, K (Klebsiella pneumoniae): 0
stacked score activity, 100/MIC, E (Enterococcus faecium): 0
stacked score activity, 100/MIC, E (Enterobacter cloacae): 0
SMILES: CC1CCC(CN2C(=N)NC[C@@H]2CCCCN2CCNC2=N)CC1 (some centres unmarked) [Compound 46]

stacked score activity, 100/MIC, S (Staphylococcus aureus): 4
stacked score activity, 100/MIC, A (Acinetobacter baumannii): 0
stacked score activity, 100/MIC, K (Klebsiella pneumoniae): 0
stacked score activity, 100/MIC, E (Enterococcus faecium): 0
stacked score activity, 100/MIC, E (Enterobacter cloacae): 0
SMILES: Cc1cccc(CCN2CCN(CCCC[C@H]3CNC(=N)N3CC3CCC(C)CC3)C2=N)c1 (some centres unmarked) [Compound 47]

stacked score activity, 100/MIC, S (Staphylococcus aureus): 4
stacked score activity, 100/MIC, A (Acinetobacter baumannii): 0
stacked score activity, 100/MIC, K (Klebsiella pneumoniae): 0
stacked score activity, 100/MIC, E (Enterococcus faecium): 0
stacked score activity, 100/MIC, E (Enterobacter cloacae): 0
SMILES: CCC[C@@H]1CN(CCCC[C@H]2CNC(=N)N2CC2CCCCC2)C(=N)N1CC(C)CC (some centres unmarked) [Compound 45]

stacked score activity, 100/MIC, S (Staphylococcus aureus): 4
stacked score activity, 100/MIC, A (Acinetobacter baumannii): 0
stacked score activity, 100/MIC, K (Klebsiella pneumoniae): 0
stacked score activity, 100/MIC, E (Enterococcus faecium): 0
stacked score activity, 100/MIC, E (Enterobacter cloacae): 0
SMILES: CCC(C)[C@H]1CN(CCCC[C@H]2CNC(=N)N2CC2CCC(C)CC2)C(=N)N1 (some centres unmarked) [Compound 49]

stacked score activity, 100/MIC, S (Staphylococcus aureus): 4
stacked score activity, 100/MIC, A (Acinetobacter baumannii): 0
stacked score activity, 100/MIC, K (Klebsiella pneumoniae): 0
stacked score activity, 100/MIC, E (Enterococcus faecium): 0
stacked score activity, 100/MIC, E (Enterobacter cloacae): 0
SMILES: CCC[C@@H]1CN(CCCC[C@H]2CNC(=N)N2CC2CCC(C)CC2)C(=N)N1CCc1cccc(C)c1 (some centres unmarked) [Compound 53]

stacked score activity, 100/MIC, S (Staphylococcus aureus): 4
stacked score activity, 100/MIC, A (Acinetobacter baumannii): 0
stacked score activity, 100/MIC, K (Klebsiella pneumoniae): 0
stacked score activity, 100/MIC, E (Enterococcus faecium): 0
stacked score activity, 100/MIC, E (Enterobacter cloacae): 0
SMILES: CCC[C@@H]1CN(CCCC[C@H]2CNC(=N)N2CC2CCC(C)CC2)C(=N)N1CC(C)CC (some centres unmarked) [Compound 54]

stacked score activity, 100/MIC, S (Staphylococcus aureus): 0
stacked score activity, 100/MIC, A (Acinetobacter baumannii): 0
stacked score activity, 100/MIC, K (Klebsiella pneumoniae): 0
stacked score activity, 100/MIC, E (Enterococcus faecium): 0
stacked score activity, 100/MIC, E (Enterobacter cloacae): 0
SMILES: CCC(C)CN1CCN(CCCC[C@H]2CNC(=N)N2CC2CCC(C)CC2)C1=N (some centres unmarked) [Compound 48]

stacked score activity, 100/MIC, S (Staphylococcus aureus): 0
stacked score activity, 100/MIC, A (Acinetobacter baumannii): 0
stacked score activity, 100/MIC, K (Klebsiella pneumoniae): 0
stacked score activity, 100/MIC, E (Enterococcus faecium): 0
stacked score activity, 100/MIC, E (Enterobacter cloacae): 0
SMILES: CCC(C)[C@H]1CN(CCCC[C@H]2CNC(=N)N2CC2CCCCC2)C(=N)N1 (some centres unmarked) [Compound 40]

stacked score activity, 100/MIC, S (Staphylococcus aureus): 4
stacked score activity, 100/MIC, A (Acinetobacter baumannii): 0
stacked score activity, 100/MIC, K (Klebsiella pneumoniae): 0
stacked score activity, 100/MIC, E (Enterococcus faecium): 0
stacked score activity, 100/MIC, E (Enterobacter cloacae): 0
SMILES: CCCCCCCN1C(=N)NC[C@@H]1CCCCN1C[C@@H](CCC)NC1=N [Compound 34]

stacked score activity, 100/MIC, S (Staphylococcus aureus): 4
stacked score activity, 100/MIC, A (Acinetobacter baumannii): 0
stacked score activity, 100/MIC, K (Klebsiella pneumoniae): 0
stacked score activity, 100/MIC, E (Enterococcus faecium): 0
stacked score activity, 100/MIC, E (Enterobacter cloacae): 0
SMILES: CCC(C)CN1C(=N)N(CCCC[C@H]2CNC(=N)N2CC2CCC(C)CC2)C[C@@H]1C(C)CC (some centres unmarked) [Compound 51]

stacked score activity, 100/MIC, S (Staphylococcus aureus): 0
stacked score activity, 100/MIC, A (Acinetobacter baumannii): 0
stacked score activity, 100/MIC, K (Klebsiella pneumoniae): 0
stacked score activity, 100/MIC, E (Enterococcus faecium): 0
stacked score activity, 100/MIC, E (Enterobacter cloacae): 0
SMILES: CCC[C@@H]1CN(CCCC[C@H]2CNC(=N)N2CC2CCCCC2)C(=N)N1 [Compound 43]

stacked score activity, 100/MIC, S (Staphylococcus aureus): 0
stacked score activity, 100/MIC, A (Acinetobacter baumannii): 0
stacked score activity, 100/MIC, K (Klebsiella pneumoniae): 0
stacked score activity, 100/MIC, E (Enterococcus faecium): 0
stacked score activity, 100/MIC, E (Enterobacter cloacae): 0
SMILES: N=C1NCCN1CCCC[C@H]1CNC(=N)N1CC1CCCCC1 [Compound 37]
